Assay results: patent publication US10851115B2, “Heterocyclic compounds as RSV inhibitors” (Enanta Pharmaceuticals, Inc., priority 2017, dated 2020)

These compounds were tested on Human RSV-A (“Long” strain) (assay: RSV in vitro cytoprotection assay in HEp-2 cells (ATPlite readout)). Details: human respiratory syncytial virus, 96 h; HEp-2 cells, 4-day incubation, ATPlite; read-out: Human RSV-A (“Long” strain) EC50.
Format: cell-based
Excerpt: RSV is a single stranded negative sense RNA virus that causes respiratory tract infections which can be dangerous to infants, the elderly, and immunosuppressed individuals. Currently there is no vaccine, and therapeutic options are both costly and of limited effectiveness. These approved treatments are Ribavirin, and Palivizumab/Synagis (a monoclonal antibody). RSV has two genotypes, A and B, which differ primarily in the structure of the virus' surface “G” attachment protein. Our current primary screen focusses on RSV-A and uses an in vitro cytoprotection assay where compounds are added in 2-fold dilutions to cells which are then subjected to fully replicative viral particles. Cell viability is measured several days later along with separate measurements of compound cytotoxicity. This report focuses on the results of our most recent screening of compounds.
HEp-2 cells, (originally derived from tumors grown in irradiated-cortisonised weanling rats that had been injected with epidermoid carcinoma tissue from a person's larynx, but later found to be indistinguishable from HeLa cells by PCR DNA analysis), were used for the culturing of genotype A, “Long” strain RSV. Flasks were inoculated with RSV and viral stocks were collected once cytopathic effect (CPE) was greater than 90%. Viral stocks in 25% sucrose media were snap frozen using liquid nitrogen to increase viral stability. Viral stock titers were quantified by tissue culture infectious dose 50% (TCID50) using 8,000 cells per well and 3-fold viral dilutions across a 96-well plate, cultured for 4 days.
Following extensive parameter testing, the final assay is run as follows: HEp-2 cells are seeded into the inner 60 wells of a 96-well plate at 8,000 cells per well in a volume of 50 μL using Growth Media (DMEM without phenol red, 1% L-Glut, 1% Penn/Strep, 1% nonessential amino acids, 10% FBS). 2-Fold serial dilutions of control and test compounds are added to the wells in duplicate in a total volume of 25 μL. Viral stock is then added to the wells in a volume of 25 μL, bringing the total volume of each well to 100 μL. Each 96-well plate has a control column of 6 wells with cells and virus but no compound (negative control, max CPE), a column with cells but no compound or virus (positive control, minimum CPE), and a column with no cells or virus or compound (background plate/reagent control). The control wells with cells but no virus are given an additional 25 uL of growth media containing an equal quantity of sucrose as those wells receiving the viral stock in order to keep consistent in media and volume conditions. The outer wells of the plate are filled with 125 μL of growth media to act as a thermal and evaporative moat around the test wells. Following a 4-day incubation period, the plates are read using ATPlite (50 uL added per well), which quantifies the amount of ATP (a measure of cell health) present in each well. Assay plates are read using the Envision luminometer. In parallel, cytotoxicity is examined on an additional 96-well plate treated in an identical manner, but substituting the 25 μL of viral stock for 25 μL of growth media. […] EC50 ranges are as follows: A<0.01 μM; B 0.01-0.05 μM; C>0.05 μM.

SMILES	EC50 [nM]
O=C(Nc1c(F)cccc1C(F)(F)F)c1cc2c(o1)-c1ncc(F)cc1N(C(=O)c1ccc(NC(=O)c3cc4c(nc3N3CC5(CCOCC5)C3)CCC4)cc1)CC2 [Example 107]	< 10
Cc1ccc(C(=O)Nc2ccc(C(=O)N3CCc4c(sc(C(=O)Nc5c(F)cccc5F)c4F)-c4ncccc43)cc2)c(N2CC3(CCOCC3)C2)n1 [Example 81]	< 10
O=C(Nc1c(F)cccc1F)c1cc2c(o1)-c1ncc(F)cc1N(C(=O)c1ccc(NC(=O)c3cc4c(nc3N3CC5(CCOCC5)C3)CCC4)cc1)CC2 [Example 104]	< 10
O=C(Nc1ccc(C(=O)N2CCc3cc(-c4nc5ccccc5[nH]4)sc3-c3ncccc32)cc1)c1cccnc1N1CC2(CCOCC2)C1 [Example 6]	> 50
Cc1cnc(N2CC3(CCOCC3)C2)c(C(=O)Nc2ccc(C(=O)N3CCc4cc(-c5nc6ccccc6[nH]5)sc4-c4ncc(C)cc43)cc2)c1 [Example 137]	< 10
Cc1cnc(N2CC3(CCOCC3)C2)c(C(=O)Nc2ccc(C(=O)N3CCc4cc(-c5nc6ccccc6[nH]5)oc4-c4ccncc43)cc2)c1 [Example 124]	> 50
Cc1cnc(N2CC3(CCOCC3)C2)c(C(=O)Nc2ccc(C(=O)N3CCc4cc(C(=O)Nc5c(F)cccc5F)sc4-c4cc(C)sc43)cc2)c1 [Example 128]	10 to 50
O=C(Nc1ccc(C(=O)N2CCc3cc(-c4nc5ccccc5[nH]4)oc3-c3ncccc32)cc1)c1cc2c(nc1N1CC3(CCOCC3)C1)CCC2 [Example 120]	10 to 50
Cc1cnc(N2CC3(CCOCC3)C2)c(C(=O)Nc2ccc(C(=O)N3CCc4cc(-c5nc6ccccc6[nH]5)sc4-c4cc(C)sc43)cc2)c1 [Example 132]	10 to 50
O=C(Nc1ccc(C(=O)N2CCc3cc(-c4nc5ccccc5[nH]4)sc3-c3ncc(F)cc32)cc1)c1cccnc1N1CC2(CCOCC2)C1 [Example 54]	10 to 50
Cc1cnc(N2CC3(CCOCC3)C2)c(C(=O)Nc2ccc(C(=O)N3CCc4cc(-c5nc6ccccc6[nH]5)oc4-c4ncc(F)cc43)cc2)c1 [Example 103]	10 to 50
Cc1cnc(N2CCC3(CC2)COC3)c(C(=O)Nc2ccc(C(=O)N3CCc4cc(-c5nc6cccc(F)c6[nH]5)sc4-c4ncccc43)cc2)c1 [Example 97]	10 to 50
O=C(Nc1c(Cl)cccc1Cl)c1cc2c(o1)-c1ncc(F)cc1N(C(=O)c1ccc(NC(=O)c3cc4c(nc3N3CC5(CCOCC5)C3)CCC4)cc1)CC2 [Example 105]	< 10
Cc1ccc(C(=O)Nc2ccc(C(=O)N3CCc4c(sc(-c5nc6ccccc6[nH]5)c4F)-c4ncccc43)cc2)c(N2CC3(CCOCC3)C2)n1 [Example 82]	< 10
O=C(Nc1ccc(C(=O)N2CCc3cc(-c4nc5cccc(C(F)(F)F)c5[nH]4)sc3-c3ncc(F)cc32)cc1)c1cccnc1N1CC2(CCOCC2)C1 [Example 60]	10 to 50
Cc1ccc(C(=O)Nc2ccc(C(=O)N3CCc4c(sc(C(=O)Nc5c(C)cccc5F)c4F)-c4ncccc43)cc2)c(N2CC3(CCOCC3)C2)n1 [Example 83]	< 10
Cc1cnc(N2CC3COCC3C2)c(C(=O)Nc2ccc(C(=O)N3CCc4cc(-c5nc6ccccc6[nH]5)sc4-c4ncc(F)cc43)cc2)c1 (stereo not drawn) [Example 68]	10 to 50
Cc1cnc(N2CCC3(CC2)COC3)c(C(=O)Nc2ccc(C(=O)N3CCc4cc(C(=O)Nc5ccccc5)sc4-c4ncccc43)cc2)c1 [Example 90]	10 to 50

Further lines, results first:

EC50 [nM]	SMILES
10 to 50	Cc1cnc(N2CC3(CCOCC3)C2)c(C(=O)Nc2ccc(C(=O)N3CCc4cc(C(=O)Nc5c(F)cccc5Cl)sc4-c4nc(C)ccc43)cc2)c1 [Example 142]
< 10	Cc1ccc(C(=O)Nc2ccc(C(=O)N3CCc4cc(C(=O)Nc5c(F)cccc5F)sc4-c4ncccc43)cc2)c(N2CC3(CCOCC3)C2)n1 [Example 39]
< 10	Cc1ccc(C(=O)Nc2ccc(C(=O)N3CCc4cc(NC(=O)c5ccccc5F)sc4-c4ncccc43)cc2)c(N2CC3(CCOCC3)C2)n1 [Example 160]
< 10	Cc1cnc(N2CC3(CCOCC3)C2)c(C(=O)Nc2ccc(C(=O)N3CCc4cc(C(=O)Nc5c(F)cc(F)cc5Cl)sc4-c4ncc(F)cc43)cc2)c1 [Example 65]
< 10	Cc1cnc2c(c1)N(C(=O)c1ccc(NC(=O)c3cccnc3N3CC4(CCOCC4)C3)cc1)CCc1cc(C(=O)Nc3c(F)cccc3F)sc1-2 [Example 164]
< 10	Cc1cnc(N2CC3(CCOCC3)C2)c(C(=O)Nc2ccc(C(=O)N3CCc4c(sc(C(=O)Nc5ncccc5F)c4F)-c4ncccc43)cc2)c1 [Example 72]
< 10	Cc1cnc(N2CC3(CCOCC3)C2)c(C(=O)Nc2ccc(C(=O)N3CCc4cc(C(=O)Nc5cnccc5C)sc4-c4ncccc43)cc2)c1 [Example 33]
10 to 50	Cc1cnc(N2CC3(CCOCC3)C2)c(C(=O)Nc2ccc(C(=O)N3CCc4cc(C(=O)Nc5c(F)cccc5Cl)oc4-c4ccncc43)cc2)c1 [Example 125]
< 10	Cc1cnc(N2CC3(CCOCC3)C2)c(C(=O)Nc2ccc(C(=O)N3CCc4cc(NC(=O)c5ncccc5F)sc4-c4ncccc43)cc2)c1 [Example 154]
< 10	Cc1cnc(N2CC3(CCOCC3)C2)c(C(=O)Nc2ccc(C(=O)N3CCc4cc(C(=O)Nc5nccs5)sc4-c4ncccc43)cc2)c1 [Example 35]
> 50	Cc1cnc(N2CC3(CCOCC3)C2)c(C(=O)Nc2ccc(C(=O)N3CCc4cc(C(=O)Nc5c(C)cccc5C#N)sc4-c4nc(C)ccc43)cc2)c1 [Example 141]
10 to 50	Cc1cnc(N2CC3(CCOCC3)C2)c(C(=O)Nc2ccc(C(=O)N3CCc4cc(C(=O)Nc5c(F)cccc5F)oc4-c4cccnc43)cc2)c1 [Example 111]
< 10	Cc1cnc(N2CC3(CCOCC3)C2)c(C(=O)Nc2ccc(C(=O)N3CCc4cc(C(=O)Nc5ccncc5C)sc4-c4ncccc43)cc2)c1 [Example 34]
< 10	Cc1cnc(N2CC3(CCOCC3)C2)c(C(=O)Nc2ccc(C(=O)N3CCc4cc(-c5nc6cccc(F)c6[nH]5)sc4-c4ncc(F)cc43)cc2)c1 [Example 64]
< 10	Cc1cnc(N2CC3(CCOCC3)C2)c(C(=O)Nc2ccc(C(=O)N3CCc4cc(C(=O)Nc5c(Cl)cccc5Cl)sc4-c4ncccc43)cc2)c1 [Example 12]
< 10	Cc1cnc(N2CC3(CCOCC3)C2)c(C(=O)Nc2ccc(C(=O)N3CCc4cc(C(=O)Nc5c(C)cccc5F)sc4-c4ncc(C)cc43)cc2)c1 [Example 134]
< 10	Cc1cnc(N2CC3(CCOCC3)C2)c(C(=O)Nc2ccc(C(=O)N3CCc4cc(C(=O)Nc5c(F)cccc5F)sc4-c4ncccc43)cc2)c1 [Example 9]
< 10	Cc1cnc(N2CC3(CCOCC3)C2)c(C(=O)Nc2ccc(C(=O)N3CCc4cc(C(=O)Nc5c(F)cc(F)cc5F)sc4-c4ncccc43)cc2)c1 [Example 10]
< 10	Cc1cnc(N2CC3(CCOCC3)C2)c(C(=O)Nc2ccc(C(=O)N3CCc4cc(C(=O)Nc5ccncc5)sc4-c4ncccc43)cc2)c1 [Example 21]
10 to 50	O=C(Nc1c(F)cc(F)cc1Cl)c1cc2c(s1)-c1cnccc1N(C(=O)c1ccc(NC(=O)c3cccnc3N3CC4(CCOCC4)C3)cc1)CC2 [Example 52]
10 to 50	Cc1cnc(N2CC3(CCOCC3)C2)c(C(=O)Nc2ccc(C(=O)N3CCc4cc(C(=O)Nc5ncccn5)sc4-c4ncccc43)cc2)c1 [Example 14]
10 to 50	Cc1cnc(N2CC3(CCOCC3)C2)c(C(=O)Nc2ccc(C(=O)N3CCc4cc(C(=O)N[C@@H]5CCOC5)sc4-c4ncccc43)cc2)c1 [Example 17]
< 10	O=C(Nc1c(F)cccc1Cl)c1cc2c(s1)-c1ncccc1N(C(=O)c1ccc(NC(=O)c3cccnc3N3CC4(CCOCC4)C3)cc1)CC2 [Example 5]
< 10	Cc1cnc(N2CC3(CCOCC3)C2)c(C(=O)Nc2ccc(C(=O)N3CCc4c(sc(-c5nc6ccc(F)cc6[nH]5)c4F)-c4ncccc43)cc2)c1 [Example 79]
10 to 50	Cc1ccc(C(=O)Nc2ccc(C(=O)N3CCc4cc(NC(=O)c5c(C)cccc5F)sc4-c4ncccc43)cc2)c(N2CC3(CCOCC3)C2)n1 [Example 158]
10 to 50	O=C(Nc1ccc(C(=O)N2CCc3cc(-c4nc5cccc(Cl)c5[nH]4)sc3-c3ncc(F)cc32)cc1)c1cccnc1N1CC2(CCOCC2)C1 [Example 57]
< 10	Cc1cnc(N2CC3(CCOCC3)C2)c(C(=O)Nc2ccc(C(=O)N3CCc4cc(NC(=O)c5c(F)cccc5Cl)sc4-c4ncccc43)cc2)c1 [Example 153]
